Measurements from the supplement of paper PMC10627819.

Tests used:
[1] = tested on: B. subtilis 168; experiment: fitness (endpoint OD595 vs no drug) (fraction); higher = more growth
How it was run: (§1)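 Background-subtracted growth curves were the basis for fitness, taken as the optical density at entry into stationary phase over the robust mean of no-drug control wells. A cap of 1 was applied. The curves came from OD595 readings every 30 min for 14 h at 37 °C, in 384-well plates seeded at OD595 0.01 with 30 µl, or 55 µl for S. pneumoniae.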

[2] = tested on: S. pneumoniae D39V; experiment: as above
How it was run: as §1

O=C(O)[C@H]1/C(=C/CO)O[C@@H]2CC(=O)N21 [Clavulanic acid] + CO[C@@H]1[C@@H](OC(N)=O)[C@@H](O)[C@H](Oc2ccc3c(O)c(NC(=O)c4ccc(O)c(CC=C(C)C)c4)c(=O)oc3c2C)OC1(C)C [Novobiocin]
fitness, [1]
Settings | first compound 1.5 µg/mL | first compound 3 µg/mL | first compound 6 µg/mL
partner 0.0125 µg/mL | 0.932 | 0.895 | 0.759
partner 0.025 µg/mL | 0.935 | 0.89 | 0.727
partner 0.05 µg/mL | 0.951 | 0.914 | 0.798

fitness, [1], one replicate
Settings | partner 0.1 µg/mL | partner 0.125 µg/mL | partner 0.2 µg/mL | partner 0.25 µg/mL | partner 0.5 µg/mL
first compound 1.5 µg/mL | 0.893 | 0.827 | 0.975 | 0.841 | 0.511
first compound 3 µg/mL | 0.937 | 0.815 | 0.989 | 0.774 | 0.385
first compound 6 µg/mL | 0.827 | 0.775 | 0.796 | 0.726 | 0.209

O=C(O)[C@H]1/C(=C/CO)O[C@@H]2CC(=O)N21 [Clavulanic acid] + CO[C@H]1/C=C/O[C@@]2(C)Oc3c(C)c(O)c4c(O)c(c(/C=N/N5CCN(C)CC5)c(O)c4c3C2=O)NC(=O)/C(C)=C\C=C\[C@H](C)[C@H](O)[C@@H](C)[C@@H](O)[C@@H](C)[C@H](OC(C)=O)[C@@H]1C [Rifampicin]
fitness, [2]
Settings | first compound 0.5 µg/mL | first compound 1 µg/mL | first compound 2 µg/mL
partner 0.025 µg/mL | ≥ 1 | 0.919 | –
partner 0.1 µg/mL | – | 0.421 | 0.239

[2], partner 0.2 µg/mL, one replicate
Settings | fitness
first compound 0.5 µg/mL | 0
first compound 1 µg/mL | 0
first compound 2 µg/mL | 0

O=C(O)[C@H]1/C(=C/CO)O[C@@H]2CC(=O)N21 [Clavulanic acid] + COc1cc(Cc2cnc(N)nc2N)cc(OC)c1OC [Trimethoprim]
fitness, [1], one replicate
Settings | partner 0.1 µg/mL | partner 0.2 µg/mL | partner 0.4 µg/mL | partner 1 µg/mL | partner 2 µg/mL
first compound 1.5 µg/mL | 0.89 | 0.757 | 0.559 | 0.507 | 0.392
first compound 3 µg/mL | 0.853 | 0.693 | 0.537 | 0.455 | 0.388
first compound 6 µg/mL | 0.728 | 0.687 | 0.482 | 0.421 | 0.273

fitness, [1]
Settings | first compound 1.5 µg/mL | first compound 3 µg/mL | first compound 6 µg/mL
partner 0.125 µg/mL | 0.647 | 0.618 | 0.55
partner 0.25 µg/mL | 0.511 | – | –
partner 0.5 µg/mL | 0.505 | 0.494 | 0.457

O=C(O)[C@H]1/C(=C/CO)O[C@@H]2CC(=O)N21 [Clavulanic acid] + C[C@@H](O)[C@H]1C(=O)N2C(C(=O)O)=C(SCCNC=N)C[C@H]12 [Imipenem]
fitness, [2]
Settings | partner 0.005 µg/mL | partner 0.0065 µg/mL | partner 0.01 µg/mL | partner 0.013 µg/mL | partner 0.02 µg/mL | partner 0.026 µg/mL
first compound 0.5 µg/mL | 0.976 | 0.974 | 0.987 | 0.968 | 0.935 | 0.883
first compound 1 µg/mL | 0.887 | 0.92 | 0.899 | 0.891 | 0.888 | 0.892
first compound 2 µg/mL | 0.737 | 0.82 | 0.724 | 0.791 | 0.655 | 0.789

O=C(O)[C@H]1/C(=C/CO)O[C@@H]2CC(=O)N21 [Clavulanic acid] + C[C@H]1COc2c(N3CCN(C)CC3)c(F)cc3c(=O)c(C(=O)O)cn1c23 [Levofloxacin]
fitness, [1], one replicate
Settings | first compound 1.5 µg/mL | first compound 3 µg/mL | first compound 6 µg/mL
partner 0.001 µg/mL | 0.908 | 0.852 | 0.776
partner 0.0078 µg/mL | 0.919 | 0.872 | 0.82

Settings | fitness
[1], first compound 1.5 µg/mL, partner 0.002 µg/mL | 0.836
[1], first compound 1.5 µg/mL, partner 0.0039 µg/mL | 0.821
[1], first compound 1.5 µg/mL, partner 0.0312 µg/mL | 0.0412
[1], first compound 1.5 µg/mL, partner 0.0625 µg/mL | 0.0486
[1], first compound 1.5 µg/mL, partner 0.125 µg/mL | 0.0536
[1], first compound 3 µg/mL, partner 0.002 µg/mL | 0.829
[1], first compound 3 µg/mL, partner 0.0039 µg/mL | 0.81
[1], first compound 3 µg/mL, partner 0.0312 µg/mL | 0.0294
[1], first compound 3 µg/mL, partner 0.0625 µg/mL | 0.0351
[1], first compound 3 µg/mL, partner 0.125 µg/mL | 0.0411
[1], first compound 6 µg/mL, partner 0.002 µg/mL | 0.734
[1], first compound 6 µg/mL, partner 0.0039 µg/mL | 0.72
[1], first compound 6 µg/mL, partner 0.0312 µg/mL | 0.0384
[1], first compound 6 µg/mL, partner 0.0625 µg/mL | 0.0352
[1], first compound 6 µg/mL, partner 0.125 µg/mL | 0.0346
[2], first compound 0.5 µg/mL, partner 0.1725 µg/mL | 0.948
[2], first compound 0.5 µg/mL, partner 0.2 µg/mL | 0.914
[2], first compound 0.5 µg/mL, partner 0.345 µg/mL | 0.881
[2], first compound 0.5 µg/mL, partner 0.4 µg/mL | 0.681
[2], first compound 0.5 µg/mL, partner 0.69 µg/mL | 0.61
[2], first compound 0.5 µg/mL, partner 0.8 µg/mL | 0.134
[2], first compound 1 µg/mL, partner 0.1725 µg/mL | 0.927
[2], first compound 1 µg/mL, partner 0.2 µg/mL | 0.805
[2], first compound 1 µg/mL, partner 0.345 µg/mL | 0.842
[2], first compound 1 µg/mL, partner 0.4 µg/mL | 0.599
[2], first compound 1 µg/mL, partner 0.8 µg/mL | 0.242
[2], first compound 2 µg/mL, partner 0.1725 µg/mL | 0.841
[2], first compound 2 µg/mL, partner 0.2 µg/mL | 0.623
[2], first compound 2 µg/mL, partner 0.345 µg/mL | 0.735
[2], first compound 2 µg/mL, partner 0.4 µg/mL | 0.431
[2], first compound 2 µg/mL, partner 0.69 µg/mL | 0.423
[2], first compound 2 µg/mL, partner 0.8 µg/mL | 0.103
